Reference: patent US20060069132A1, “Azolecarboxamide herbicides” (priority 2004, published 2006)

Tests used:
[1] = system: common sowthistle; assay: Test E pre-/postemergence herbicide test; format: in vivo, Sonchus oleraceous
Excerpt: (§1) Seeds of plant species selected from bipinnate beggarticks (Bidens bipinnata L.), hairy beggarticks (Bidens radiata Thuill.), bermudagrass (Cynodon dactylon (L.) Pers.), Surinam grass (Urochloa decumbens (Staph) R. D. Webster, previously named Brachiaria decumbens Stapf), large crabgrass (Digitaria sanguinalis (L.) Scop.), green foxtail (Setaria viridis (L.) P. Beauv.), goosegrass (Eleusine indica (L.) Gaertn.), johnsongrass (Sorghum halepense (L.) Pers.), kochia (Kochia scoparia (L.) Schrad.), pitted morningglory (Ipomoea lacunosa L.), purple nutsedge (Cyperus rotundus L.), common ragweed (Ambrosia elatior L.), mustard (Brassica nigra (L.) W. D. J. Koch), guineagrass (Panicum maximum Jacq.), dallisgrass (Paspalum dilatatum Poir.), barnyardgrass (Echinochloa crus-galli (L). P. Beauv.), southern sandbur (Cenchrus echinatus L.), common sowthistle (Sonchus oleraceous L.), prickly sida (Sida spinosa L.), Italian ryegrass (Lolium multiflorum Lam.), common purslane (Portulaca oleracea L.), broadleaf signalgrass (Brachiaria platyphylla (Griseb.) Nash), common groundsel (Senecio vulgaris L.), common chickweed (Stellaria media (L.) Vill/Cyr.), tropical spiderwort (Commelina benghalensis L.), annual bluegrass (Poa annua L.), downy bromegrass (Bromus tectorum L.), itchgrass (Rottboellia cochinchinensis (L.) L.f.), quackgrass (Elytrigia repens (L.) Nevski), Canada horseweed (Erigeron Canadensis L.), field bindweed (Convolvulus arvensis L.), spotted spurge (Euphorbia maculata L.), common mallow (Malva sylvestris (=s silvestris) L.), and Russian thistle (Salsola kali L. ssp. Ruthenica (Iljin) Soo) were planted and treated preemergence with test chemicals formulated in a non-phytotoxic solvent mixture which included a surfactant.
(§2) At the same time, plants selected from these weed species were treated with postemergence applications of some of the test chemicals formulated in the same manner. Plants ranged in height from 2 to 18 cm (1- to 4-leaf stage) for postemergence treatments. Treated plants and controls were maintained in a greenhouse for 12 to 14 days, after which time all species were compared to controls and visually evaluated. Plant response ratings, summarized in Table E, are based on a scale of 0 to 100 where 0 is no effect and 100 is complete control. A dash (-) response means no test result.

[2] = system: bermudagrass; assay: Test E pre-/postemergence herbicide test; format: in vivo, Cynodon dactylon
Excerpt: as §1, §2

[3] = system: Canada horseweed; assay: Test E pre-/postemergence herbicide test; format: in vivo, Erigeron Canadensis
Excerpt: as §1, §2

[4] = system: mustard; assay: Test E pre-/postemergence herbicide test; format: in vivo, Brassica nigra
Excerpt: as §1, §2

[5] = system: common chickweed; assay: Test E pre-/postemergence herbicide test; format: in vivo, Stellaria media
Excerpt: as §1, §2

[6] = system: pitted morningglory; assay: Test E pre-/postemergence herbicide test; format: in vivo, Ipomoea lacunosa
Excerpt: as §1, §2

[7] = system: downy bromegrass; assay: Test E pre-/postemergence herbicide test; format: in vivo, Bromus tectorum
Excerpt: as §1, §2

[8] = system: Italian ryegrass; assay: Test E pre-/postemergence herbicide test; format: in vivo, Lolium multiflorum
Excerpt: as §1, §2

[9] = system: prickly sida; assay: Test E pre-/postemergence herbicide test; format: in vivo, Sida spinosa; conditions: Preemergence
Excerpt: as §1, §2

[10] = system: early watergrass; assay: Test D flooded paddy test; format: in vivo, Echinochloa oryzoides; conditions: 21 days, scale 0 to 100
Excerpt: (§3) Three plastic pots (ca. 16-cm diameter) per rate were partially filled with sterilized Tama silt loam soil comprising a 35:50:15 ratio of sand, silt and clay and 2.6% organic matter. Separate plantings for each of the three pots were as follows. Seeds from the U.S. of ducksalad (Heteranthera limosa (Sw.) Willd.), smallflower umbrella sedge (Cyperus difformis L.) and purple redstem (Ammannia coccinea Rottb.), were planted into one 16-cm pot for each rate. Seeds from the U.S. of rice flatsedge (Cyperus iria L.), bearded sprangletop (Leptochloa fascicularis (Lam.) Gray), one stand of 9 or 10 water seeded rice seedlings (Oryza sativa L. cv. ‘Japonica—M202’), and one stand of 6 transplanted rice seedlings (Oryza sativa L. cv. ‘Japonica—M202’) were planted into one 16-cm pot for each rate. Seeds from the U.S. of barnyardgrass (Echinochloa crus-galli (L.) Beauv.), late watergrass (Echinochloa oryzicola Vasinger), early watergrass (Echinochloa oryzoides (Ard.) Fritsch) and junglerice (Echinochloa colona (L.) Link) were planted into one 16-cm pot for each rate. Plantings were sequential so that crop and weed species were at the 2.0 to 2.5-leaf stage at time of treatment.
(§4) Potted plants were grown in a greenhouse with day/night temperature settings of 29.5/26.7° C., and supplemental balanced lighting was provided to maintain a 16-hour photoperiod. Test pots were maintained in the greenhouse until test completion.
(§5) At time of treatment, test pots were flooded to 3 cm above the soil surface, treated by application of test compounds directly to the paddy water, and then maintained at that water depth for the duration of the test. Effects of treatments on rice and weeds were visually evaluated by comparison to untreated controls after 21 days. Plant response ratings are reported on a 0 to 100 scale; where 0 is no effect and 100 is complete control. A dash (-) response means no test result.

[11] = system: smallflower umbrella sedge; assay: Test D flooded paddy test; format: in vivo, Cyperus difformis; conditions: 21 days, scale 0 to 100
Excerpt: as §3, §4, §5

[12] = Postemergence, 500 g ai/ha, scale 0 to 100
[13] = Postemergence, 250 g ai/ha, scale 0 to 100
[14] = Preemergence, 62 g ai/ha, scale 0 to 100
[15] = Preemergence, 125 g ai/ha, scale 0 (no effect) to 100 (complete control)
[16] = Preemergence, 250 g ai/ha, scale 0 (no effect) to 100 (complete control)
[17] = Preemergence, 500 g ai/ha, scale 0 (no effect) to 100 (complete control)
[18] = postemergence, 125 g ai/ha, scale 0 to 100
[19] = postemergence, 62 g ai/ha, scale 0 to 100
[20] = Preemergence, 125 g ai/ha, scale 0 to 100
[21] = 250 g ai/ha, scale 0 (no effect) to 100 (complete control)
[22] = 500 g ai/ha, scale 0 (no effect) to 100 (complete control)

CCn1nc(C(C)(C)C)cc1C(=O)Nc1cc(C(=O)N(C)C)ccc1F [Compound 6, N-[5-[(dimethylamino)carbonyl]-2-fluorophenyl]-3-(1,1-dimethylethyl)-1-ethyl-1H-pyrazole-5-carboxamide]
10: Plant response rating, Morningglory [6, 18]
100: Plant response rating, Sowthistle [1, 12] | Plant response rating, Sowthistle [1, 13] | Plant response rating, Sowthistle [1, 16] | Plant response rating, Sowthistle [1, 17] | Plant response rating, Bermudagrass [2, 17] | Plant response rating, Horseweed [3, 12] | Plant response rating, Horseweed [3, 13] | Plant response rating, Horseweed [3, 14] | Plant response rating, Horseweed [3, 15] | Plant response rating, Horseweed [3, 16] | Plant response rating, Horseweed [3, 17] | Plant response rating, Horseweed [3, 18] | Plant response rating, Black Mustard [4, 12] | Plant response rating, Black Mustard [4, 13] | Plant response rating, Black Mustard [4, 14] | Plant response rating, Black Mustard [4, 15] | Plant response rating, Black Mustard [4, 16] | Plant response rating, Black Mustard [4, 17] | Plant response rating, Black Mustard [4, 18] | Plant response rating, Chickweed [5, 12] | Plant response rating, Chickweed [5, 13] | Plant response rating, Chickweed [5, 17] | Plant response rating, Chickweed [5, 18] | Plant response rating, Chickweed [5, 19] | Plant response rating, Morningglory [6, 17] | Plant response rating, Bromegrass, Downy [7, 12] | Plant response rating, Bromegrass, Downy [7, 13] | Plant response rating, Bromegrass, Downy [7, 17] | Plant response rating, Ryegrass, Italian [8, 17]
90: Plant response rating, Bermudagrass [2, 13] | Plant response rating, Bermudagrass [2, 14] | Plant response rating, Chickweed [5, 14] | Plant response rating, Bromegrass, Downy [7, 14] | Plant response rating, Ryegrass, Italian [8, 14]
75: Plant response rating, Sowthistle [1, 19] | Plant response rating, Horseweed [3, 19]
60: Plant response rating, Morningglory [6, 13]
70: Plant response rating, Morningglory [6, 15]
98: Plant response rating, Bermudagrass [2, 12] | Plant response rating, Bromegrass, Downy [7, 18] | Plant response rating, Ryegrass, Italian [8, 12] | Plant response rating, Ryegrass, Italian [8, 13]
0: Plant response rating, Morningglory [6, 19]
80: Plant response rating, Bermudagrass [2, 18] | Plant response rating, Morningglory [6, 12] | Plant response rating, Ryegrass, Italian [8, 19]
95: Plant response rating, Sowthistle [1, 14] | Plant response rating, Sowthistle [1, 15] | Plant response rating, Sowthistle [1, 18] | Plant response rating, Bermudagrass [2, 15] | Plant response rating, Bermudagrass [2, 16] | Plant response rating, Black Mustard [4, 19] | Plant response rating, Chickweed [5, 15] | Plant response rating, Chickweed [5, 16] | Plant response rating, Bromegrass, Downy [7, 15] | Plant response rating, Bromegrass, Downy [7, 16] | Plant response rating, Bromegrass, Downy [7, 19] | Plant response rating, Ryegrass, Italian [8, 15] | Plant response rating, Ryegrass, Italian [8, 18]
35: Plant response rating, Bermudagrass [2, 19]
20: Plant response rating, Morningglory [6, 14]

Cc1nn(C(C)(C)C)nc1C(=O)Nc1cccc(C(=O)N(C)C)c1 [Compound 391]
100: Plant response rating, Sowthistle [1, 16] | Plant response rating, Sowthistle [1, 17] | Plant response rating, Horseweed [3, 16] | Plant response rating, Horseweed [3, 17] | Plant response rating, Prickly Sida ([9]; 125 g ai/ha, scale 0 to 100) | Plant response rating, Prickly Sida [9, 21] | Plant response rating, Prickly Sida [9, 22] | Plant response rating, Black Mustard [4, 16] | Plant response rating, Black Mustard [4, 17] | Plant response rating, Chickweed [5, 16] | Plant response rating, Chickweed [5, 17]
75: Plant response rating, Sowthistle [1, 20]
95: Plant response rating, Bermudagrass [2, 16] | Plant response rating, Bermudagrass [2, 17] | Plant response rating, Horseweed [3, 20] | Plant response rating, Bromegrass, Downy [7, 16] | Plant response rating, Bromegrass, Downy [7, 17] | Plant response rating, Ryegrass, Italian [8, 16] | Plant response rating, Ryegrass, Italian [8, 17]
80: Plant response rating, Horseweed [3, 14] | Plant response rating, Black Mustard [4, 20] | Plant response rating, Morningglory [6, 16] | Plant response rating, Morningglory [6, 17] | Plant response rating, Ryegrass, Italian [8, 20]
60: Plant response rating, Morningglory [6, 20]
85: Plant response rating, Bermudagrass [2, 14]
90: Plant response rating, Bermudagrass [2, 20] | Plant response rating, Chickweed [5, 14] | Plant response rating, Chickweed [5, 20]
30: Plant response rating, Bromegrass, Downy [7, 20]
10: Plant response rating, Morningglory [6, 14] | Plant response rating, Bromegrass, Downy [7, 14]
50: Plant response rating, Sowthistle [1, 14] | Plant response rating, Prickly Sida ([9]; 62 g ai/ha, scale 0 to 100) | Plant response rating, Black Mustard [4, 14]

CCc1nc(C(C)(C)C)sc1C(=O)Nc1cccc(C(=O)NCC2CC2)n1 [Compound 215]
25: Plant response rating, Watergrass, Early ([10]; 750 g ai/ha)
95: Plant response rating, Sedge, Umbrella ([11]; 250 g ai/ha) | Plant response rating, Sedge, Umbrella ([11]; 500 g ai/ha) | Plant response rating, Sedge, Umbrella ([11]; 750 g ai/ha)
40: Plant response rating, Watergrass, Early ([10]; 1000 g ai/ha)
100: Plant response rating, Sedge, Umbrella ([11]; 1000 g ai/ha)
0: Plant response rating, Watergrass, Early ([10]; 125 g ai/ha) | Plant response rating, Watergrass, Early ([10]; 250 g ai/ha)
20: Plant response rating, Watergrass, Early ([10]; 500 g ai/ha) | Plant response rating, Sedge, Umbrella ([11]; 125 g ai/ha)

CCc1nn(C(C)(C)CC)nc1C(=O)Nc1cccc(C(=O)N(C)C)c1 [Compound 372]
20: Plant response rating, Prickly Sida ([9]; 62 g ai/ha, scale 0 to 100) | Plant response rating, Morningglory [6, 20] | Plant response rating, Bromegrass, Downy [7, 14]
80: Plant response rating, Horseweed [3, 14] | Plant response rating, Horseweed [3, 20] | Plant response rating, Bromegrass, Downy [7, 16]
50: Plant response rating, Morningglory [6, 16]
100: Plant response rating, Horseweed [3, 17] | Plant response rating, Black Mustard [4, 14] | Plant response rating, Black Mustard [4, 20] | Plant response rating, Black Mustard [4, 16] | Plant response rating, Black Mustard [4, 17]
70: Plant response rating, Bromegrass, Downy [7, 20] | Plant response rating, Ryegrass, Italian [8, 20]
90: Plant response rating, Bermudagrass [2, 17] | Plant response rating, Chickweed [5, 20]
10: Plant response rating, Sowthistle [1, 14] | Plant response rating, Bermudagrass [2, 14] | Plant response rating, Morningglory [6, 14]
60: Plant response rating, Bermudagrass [2, 20] | Plant response rating, Bermudagrass [2, 16] | Plant response rating, Chickweed [5, 14] | Plant response rating, Morningglory [6, 17] | Plant response rating, Ryegrass, Italian [8, 14]
95: Plant response rating, Sowthistle [1, 17] | Plant response rating, Horseweed [3, 16] | Plant response rating, Prickly Sida [9, 21] | Plant response rating, Prickly Sida [9, 22] | Plant response rating, Chickweed [5, 16] | Plant response rating, Chickweed [5, 17] | Plant response rating, Ryegrass, Italian [8, 16] | Plant response rating, Ryegrass, Italian [8, 17]
85: Plant response rating, Bromegrass, Downy [7, 17]
40: Plant response rating, Sowthistle [1, 20] | Plant response rating, Sowthistle [1, 16]
